Measurements published in patent publication US9156845B2, “4-(substituted amino)-7H-pyrrolo[2,3-d] pyrimidines as LRRK2 inhibitors” (Pfizer Inc., priority 2012, dated 2015).

How the values were obtained:
[1] = target: MAP3K4 (Homo sapiens (Human), UniProt Q9Y6R4); test: ActivX kinase probe assay (human PBMC); assay type: binding; details: MAP3K4, read-out: percent inhibition
[2] = target: MAP3K1 (Homo sapiens (Human), UniProt Q13233); test: ActivX kinase probe assay (human PBMC); assay type: binding; details: MAP3K1, read-out: percent inhibition
[3] = target: AMPKa1 (Homo sapiens (Human), UniProt Q13131); test: ActivX kinase probe assay (human PBMC); assay type: binding; details: AMPKa1, read-out: percent inhibition
[4] = target: RSK2 domain2 (Homo sapiens (Human), UniProt P51812); test: ActivX kinase probe assay (human PBMC); assay type: binding; details: RSK2 domain2, read-out: percent inhibition
[5] = target: SGK3 (Homo sapiens (Human), UniProt Q96BR1); test: ActivX kinase probe assay (human PBMC); assay type: binding; details: SGK3, read-out: percent inhibition
[6] = target: NDR1 (Homo sapiens (Human), UniProt Q15208); test: ActivX kinase probe assay (human PBMC); assay type: binding; details: NDR1, read-out: percent inhibition
[7] = system: Wnk1, Wnk2, Wnk4; test: ActivX kinase probe assay (human PBMC); assay type: binding
[8] = target: SYK (Homo sapiens (Human), UniProt P43405); test: ActivX kinase probe assay (human PBMC); assay type: binding; details: SYK, read-out: percent inhibition
[9] = target: STLK5 (Homo sapiens (Human), UniProt Q7RTN6); test: ActivX kinase probe assay (human PBMC); assay type: binding; details: STLK5, read-out: percent inhibition
[10] = target: KHS1 (Homo sapiens (Human), UniProt Q9Y4K4); test: ActivX kinase probe assay (human PBMC); assay type: binding; details: KHS1, read-out: percent inhibition
[11] = system: IKKe, TBK1; test: ActivX kinase probe assay (human PBMC); assay type: binding
[12] = target: GST-tagged truncated LRRK2 (Homo sapiens (Human), UniProt Q5S007); test: LRRK2 Lantha Screen kinase assay; assay type: biochemical; details: geometric mean of 2-5 determinations unless otherwise indicated (a: >=6 determinations; b: single determination); read-out: LRRK2 WT IC50
Procedure: LRRK2 kinase activity was measured using Lantha Screen technology from Invitrogen. GST-tagged truncated LRRK2 from Invitrogen (Cat # PV4874) was incubated with a fluorescein-labeled peptide substrate based upon ezrin/radixin/moesin (ERM), also known as LRRKtide (Invitrogen cat #PR8976A), in the presence of a dose response of compound. Upon completion, the assay was stopped and detected with a terbium labeled anti-phospho-ERM antibody (Invitrogen, cat #PR8975A). […] Aliquots (3.5 μL) of the 100% DMSO dose response were mixed with 46.5 μL water then 1 μL of this mixture was added to the 3 μL substrate mix in the 384-well plate. The kinase reaction was started with 3 μL of a working solution of LRRK2 enzyme at a concentration of 4 μg/mL. […] The reaction was allowed to progress at room temperature for two hours and then stopped with the addition of 7 μL of detection buffer (20 mM Tris pH 7.6, 0.01% NP-40, 0.02% NaN3, 6 mM EDTA with 2 nM terbium labeled anti-phospho-ERM).

[13] = target: RSK1 domain2 (Homo sapiens (Human), UniProt Q15418); test: ActivX kinase probe assay (human PBMC); assay type: binding; details: RSK1 domain2, read-out: percent inhibition
[14] = target: CaMK2g (Homo sapiens (Human), UniProt Q13555); test: ActivX kinase probe assay (human PBMC); assay type: binding; details: CaMK2g, read-out: percent inhibition
[15] = target: ILK (Homo sapiens (Human), UniProt Q13418); test: ActivX kinase probe assay (human PBMC); assay type: binding; details: ILK, read-out: percent inhibition
[16] = target: FES (Homo sapiens (Human), UniProt P07332); test: ActivX kinase probe assay (human PBMC); assay type: binding; details: FES, read-out: percent inhibition
[17] = target: ACK (Homo sapiens (Human), UniProt Q07912); test: ActivX kinase probe assay (human PBMC); assay type: binding; details: ACK, read-out: percent inhibition
[18] = system: PITSLRE; test: ActivX kinase probe assay (human PBMC); assay type: binding
[19] = target: MLK3 (Homo sapiens (Human), UniProt Q16584); test: ActivX kinase probe assay (human PBMC); assay type: binding; details: MLK3, read-out: percent inhibition
[20] = system: p70S6K, p70S6Kb; test: ActivX kinase probe assay (human PBMC); assay type: binding
[21] = target: PKD2 (Homo sapiens (Human), UniProt Q9BZL6); test: ActivX kinase probe assay (human PBMC); assay type: binding; details: PKD2, read-out: percent inhibition
[22] = target: JAK3 domain2 (Homo sapiens (Human), UniProt P52333); test: ActivX kinase probe assay (human PBMC); assay type: binding; details: JAK3 domain2, read-out: percent inhibition
[23] = target: MAP2K4 (Homo sapiens (Human), UniProt P45985); test: ActivX kinase probe assay (human PBMC); assay type: binding; details: MAP2K4, read-out: percent inhibition
[24] = target: ZC2/TNIK (Homo sapiens (Human), UniProt Q9UKE5); test: ActivX kinase probe assay (human PBMC); assay type: binding; details: ZC2/TNIK, read-out: percent inhibition
[25] = target: IRAK4 (Homo sapiens (Human), UniProt Q9NWZ3); test: ActivX kinase probe assay (human PBMC); assay type: binding; details: IRAK4, read-out: percent inhibition
[26] = target: PAN3 (Homo sapiens (Human), UniProt Q58A45); test: ActivX kinase probe assay (human PBMC); assay type: binding; details: PAN3, read-out: percent inhibition
[27] = target: DNAPK (Homo sapiens (Human), UniProt P78527); test: ActivX kinase probe assay (human PBMC); assay type: binding; details: DNAPK, read-out: percent inhibition
[28] = target: MAP3K3 (Homo sapiens (Human), UniProt Q99759); test: ActivX kinase probe assay (human PBMC); assay type: binding; details: MAP3K3, read-out: percent inhibition
[29] = target: GSK3B (Homo sapiens (Human), UniProt P49841); test: ActivX kinase probe assay (human PBMC); assay type: binding; details: GSK3B, read-out: percent inhibition
[30] = target: NEK9 (Homo sapiens (Human), UniProt Q8TD19); test: ActivX kinase probe assay (human PBMC); assay type: binding; details: NEK9, read-out: percent inhibition
[31] = target: TLK1 (Homo sapiens (Human), UniProt Q9UKI8); test: ActivX kinase probe assay (human PBMC); assay type: binding; details: TLK1, read-out: percent inhibition
[32] = target: MLKL (Homo sapiens (Human), UniProt Q8NB16); test: ActivX kinase probe assay (human PBMC); assay type: binding; details: MLKL, read-out: percent inhibition
[33] = system: MAP2K1, MAP2K2; test: ActivX kinase probe assay (human PBMC); assay type: binding
[34] = target: IKKa (Homo sapiens (Human), UniProt O15111); test: ActivX kinase probe assay (human PBMC); assay type: binding; details: IKKa, read-out: percent inhibition
[35] = target: TAO2 (Homo sapiens (Human), UniProt Q9UL54); test: ActivX kinase probe assay (human PBMC); assay type: binding; details: TAO2, read-out: percent inhibition

MAP3K3, sequence (Q99759 whole entry): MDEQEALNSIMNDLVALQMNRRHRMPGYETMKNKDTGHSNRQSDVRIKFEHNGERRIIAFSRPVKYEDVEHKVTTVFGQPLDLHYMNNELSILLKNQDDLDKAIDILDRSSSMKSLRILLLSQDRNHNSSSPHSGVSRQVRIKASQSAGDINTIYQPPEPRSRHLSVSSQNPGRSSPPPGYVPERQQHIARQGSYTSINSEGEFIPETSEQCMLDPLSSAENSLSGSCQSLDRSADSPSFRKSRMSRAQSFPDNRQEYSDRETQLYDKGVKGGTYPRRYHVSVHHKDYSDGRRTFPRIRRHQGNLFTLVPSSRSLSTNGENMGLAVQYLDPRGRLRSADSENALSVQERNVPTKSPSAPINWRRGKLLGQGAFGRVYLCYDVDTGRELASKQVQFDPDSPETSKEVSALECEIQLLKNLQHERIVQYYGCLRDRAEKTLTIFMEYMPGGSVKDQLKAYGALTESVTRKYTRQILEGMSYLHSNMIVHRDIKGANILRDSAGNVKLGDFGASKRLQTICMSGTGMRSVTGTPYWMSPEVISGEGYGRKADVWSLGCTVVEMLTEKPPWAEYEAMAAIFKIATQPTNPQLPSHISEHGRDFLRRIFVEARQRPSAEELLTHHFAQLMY
MLKL, sequence (Q8NB16 whole entry): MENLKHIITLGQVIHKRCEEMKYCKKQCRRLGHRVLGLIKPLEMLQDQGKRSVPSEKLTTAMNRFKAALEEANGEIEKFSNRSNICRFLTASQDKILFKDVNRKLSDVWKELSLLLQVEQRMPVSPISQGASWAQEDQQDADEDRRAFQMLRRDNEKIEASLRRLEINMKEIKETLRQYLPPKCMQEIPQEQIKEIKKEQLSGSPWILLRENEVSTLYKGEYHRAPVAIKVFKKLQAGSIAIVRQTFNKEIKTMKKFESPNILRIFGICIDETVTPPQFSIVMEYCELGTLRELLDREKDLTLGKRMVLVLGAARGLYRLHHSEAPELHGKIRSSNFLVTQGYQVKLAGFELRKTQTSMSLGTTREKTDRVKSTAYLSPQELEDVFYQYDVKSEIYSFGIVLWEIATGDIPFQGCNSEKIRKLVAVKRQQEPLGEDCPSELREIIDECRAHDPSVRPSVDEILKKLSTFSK
FES, sequence (P07332 whole entry): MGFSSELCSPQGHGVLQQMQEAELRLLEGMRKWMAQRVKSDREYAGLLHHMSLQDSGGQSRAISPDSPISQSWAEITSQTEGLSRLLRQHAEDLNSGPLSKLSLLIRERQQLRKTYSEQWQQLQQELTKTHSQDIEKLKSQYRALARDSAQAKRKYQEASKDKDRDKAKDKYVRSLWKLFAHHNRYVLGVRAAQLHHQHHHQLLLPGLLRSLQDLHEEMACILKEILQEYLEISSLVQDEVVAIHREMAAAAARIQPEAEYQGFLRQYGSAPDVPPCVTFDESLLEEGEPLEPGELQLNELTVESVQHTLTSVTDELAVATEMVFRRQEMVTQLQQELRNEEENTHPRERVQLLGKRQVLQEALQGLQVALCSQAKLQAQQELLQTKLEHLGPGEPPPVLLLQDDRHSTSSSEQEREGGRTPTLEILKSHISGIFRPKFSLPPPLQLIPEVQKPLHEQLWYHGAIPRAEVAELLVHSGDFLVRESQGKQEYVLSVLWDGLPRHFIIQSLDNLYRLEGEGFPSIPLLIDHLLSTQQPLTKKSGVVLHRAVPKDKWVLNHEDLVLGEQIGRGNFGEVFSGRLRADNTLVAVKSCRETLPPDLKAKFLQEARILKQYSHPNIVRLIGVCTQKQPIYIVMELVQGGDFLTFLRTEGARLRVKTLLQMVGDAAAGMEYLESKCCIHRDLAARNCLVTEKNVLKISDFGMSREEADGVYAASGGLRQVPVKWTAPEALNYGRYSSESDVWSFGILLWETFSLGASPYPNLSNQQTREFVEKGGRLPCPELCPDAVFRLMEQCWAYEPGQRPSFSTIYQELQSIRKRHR
MLK3, sequence (Q16584 whole entry): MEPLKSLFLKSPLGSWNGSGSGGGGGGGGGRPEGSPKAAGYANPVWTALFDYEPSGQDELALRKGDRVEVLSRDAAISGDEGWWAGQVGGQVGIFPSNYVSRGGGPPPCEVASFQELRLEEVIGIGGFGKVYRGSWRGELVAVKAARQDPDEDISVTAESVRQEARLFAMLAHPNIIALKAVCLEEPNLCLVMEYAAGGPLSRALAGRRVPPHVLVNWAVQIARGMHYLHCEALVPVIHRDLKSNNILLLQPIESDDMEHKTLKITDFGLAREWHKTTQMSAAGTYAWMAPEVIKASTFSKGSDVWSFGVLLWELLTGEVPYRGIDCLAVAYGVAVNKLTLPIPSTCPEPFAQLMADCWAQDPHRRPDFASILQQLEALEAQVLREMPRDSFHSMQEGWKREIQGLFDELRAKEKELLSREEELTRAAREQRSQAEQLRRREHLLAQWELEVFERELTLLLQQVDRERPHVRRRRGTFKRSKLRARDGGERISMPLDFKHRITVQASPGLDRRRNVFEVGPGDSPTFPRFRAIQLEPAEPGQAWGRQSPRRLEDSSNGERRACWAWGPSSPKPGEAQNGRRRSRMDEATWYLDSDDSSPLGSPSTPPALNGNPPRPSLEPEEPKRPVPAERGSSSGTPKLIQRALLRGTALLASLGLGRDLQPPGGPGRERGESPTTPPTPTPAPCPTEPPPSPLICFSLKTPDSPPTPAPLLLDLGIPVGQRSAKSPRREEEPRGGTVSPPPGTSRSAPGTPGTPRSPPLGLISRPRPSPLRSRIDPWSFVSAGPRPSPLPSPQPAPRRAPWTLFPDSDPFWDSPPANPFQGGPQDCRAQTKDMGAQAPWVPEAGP
PAN3, sequence (Q58A45 whole entry): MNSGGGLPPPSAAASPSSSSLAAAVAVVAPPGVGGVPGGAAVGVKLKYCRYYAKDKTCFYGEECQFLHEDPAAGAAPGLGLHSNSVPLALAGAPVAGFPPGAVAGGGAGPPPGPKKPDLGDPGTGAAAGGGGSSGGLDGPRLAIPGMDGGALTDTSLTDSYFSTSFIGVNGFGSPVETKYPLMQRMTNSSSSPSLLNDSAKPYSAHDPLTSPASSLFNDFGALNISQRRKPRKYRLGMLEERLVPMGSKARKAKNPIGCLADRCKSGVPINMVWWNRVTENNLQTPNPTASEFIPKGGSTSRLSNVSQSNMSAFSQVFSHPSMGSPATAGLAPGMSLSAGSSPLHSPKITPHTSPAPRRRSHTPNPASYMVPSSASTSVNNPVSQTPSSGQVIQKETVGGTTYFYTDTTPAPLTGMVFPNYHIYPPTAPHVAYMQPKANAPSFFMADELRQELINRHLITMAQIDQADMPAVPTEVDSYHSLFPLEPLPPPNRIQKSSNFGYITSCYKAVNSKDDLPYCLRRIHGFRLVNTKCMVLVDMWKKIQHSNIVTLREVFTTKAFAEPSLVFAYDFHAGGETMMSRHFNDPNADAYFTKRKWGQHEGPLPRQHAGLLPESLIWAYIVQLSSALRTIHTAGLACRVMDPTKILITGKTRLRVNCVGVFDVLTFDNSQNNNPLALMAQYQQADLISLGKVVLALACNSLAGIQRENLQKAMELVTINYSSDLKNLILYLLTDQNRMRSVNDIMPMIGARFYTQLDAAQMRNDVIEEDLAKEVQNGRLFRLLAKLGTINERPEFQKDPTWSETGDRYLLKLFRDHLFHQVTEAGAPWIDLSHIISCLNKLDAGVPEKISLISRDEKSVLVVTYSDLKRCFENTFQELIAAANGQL
ZC2/TNIK, sequence (Q9UKE5 whole entry): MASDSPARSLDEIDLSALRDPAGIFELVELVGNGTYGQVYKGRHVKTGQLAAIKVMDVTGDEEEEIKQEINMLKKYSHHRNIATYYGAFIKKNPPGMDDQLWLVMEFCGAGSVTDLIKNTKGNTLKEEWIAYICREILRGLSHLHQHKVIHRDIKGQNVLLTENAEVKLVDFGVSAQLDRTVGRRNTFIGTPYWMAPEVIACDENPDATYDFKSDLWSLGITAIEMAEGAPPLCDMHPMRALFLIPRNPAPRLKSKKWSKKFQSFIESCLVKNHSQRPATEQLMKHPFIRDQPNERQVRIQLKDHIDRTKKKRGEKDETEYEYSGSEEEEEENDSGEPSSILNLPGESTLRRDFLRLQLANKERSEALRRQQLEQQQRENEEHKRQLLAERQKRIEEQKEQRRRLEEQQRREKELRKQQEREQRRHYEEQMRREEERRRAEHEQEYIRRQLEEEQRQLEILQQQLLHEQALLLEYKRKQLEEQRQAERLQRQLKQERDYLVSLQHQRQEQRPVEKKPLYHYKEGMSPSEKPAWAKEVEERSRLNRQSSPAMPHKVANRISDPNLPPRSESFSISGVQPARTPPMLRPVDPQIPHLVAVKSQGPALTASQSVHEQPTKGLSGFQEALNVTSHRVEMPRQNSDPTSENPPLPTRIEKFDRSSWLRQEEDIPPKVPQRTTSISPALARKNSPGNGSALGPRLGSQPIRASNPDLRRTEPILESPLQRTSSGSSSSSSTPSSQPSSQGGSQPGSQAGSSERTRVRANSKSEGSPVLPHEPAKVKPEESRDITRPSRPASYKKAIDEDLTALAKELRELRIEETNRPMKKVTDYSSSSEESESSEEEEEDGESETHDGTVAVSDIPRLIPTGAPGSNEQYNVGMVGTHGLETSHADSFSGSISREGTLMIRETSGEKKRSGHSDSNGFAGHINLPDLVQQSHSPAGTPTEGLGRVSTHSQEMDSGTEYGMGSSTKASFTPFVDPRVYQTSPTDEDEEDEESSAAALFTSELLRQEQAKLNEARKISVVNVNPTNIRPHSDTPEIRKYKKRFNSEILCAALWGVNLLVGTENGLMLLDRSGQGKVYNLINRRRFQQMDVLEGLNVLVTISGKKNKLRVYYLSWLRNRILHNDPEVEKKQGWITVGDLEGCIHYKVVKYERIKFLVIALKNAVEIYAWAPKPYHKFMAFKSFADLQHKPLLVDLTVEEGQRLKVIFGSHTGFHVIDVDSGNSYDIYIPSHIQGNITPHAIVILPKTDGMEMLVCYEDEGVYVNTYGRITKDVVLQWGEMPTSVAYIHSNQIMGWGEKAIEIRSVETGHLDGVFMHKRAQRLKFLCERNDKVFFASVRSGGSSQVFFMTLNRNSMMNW

Cn1cc(-c2c[nH]c3ncnc(N4CCOCC4)c23)cn1 [Example 1, 5-(1-Methyl-1H-pyrazol-4-yl)-4-(morpholin-4-yl)-7H-pyrrolo[2,3-d]pyrimidine]
inhibition at 0.1 µM ([1]; 0.1 μM): -14% | inhibition at 1 µM ([1]; 1 μM): 6.9% | inhibition at 0.1 µM ([2]; 0.1 μM): -9.4% | inhibition at 1 µM ([2]; 1 μM): 11.9% | inhibition at 0.1 µM ([3]; 0.1 μM): 1.5% | inhibition at 1 µM ([3]; 1 μM): 27% | inhibition at 0.1 µM ([4]; 0.1 μM): 0.6% | inhibition at 1 µM ([4]; 1 μM): 9.1% | inhibition at 0.1 µM ([5]; 0.1 μM): 2.5% | inhibition at 1 µM ([5]; 1 μM): 9.9% | inhibition at 0.1 µM ([6]; 0.1 μM): -19.6% | inhibition at 1 µM ([6]; 1 μM): -7.8% | percent inhibition ([7]; 0.1 μM): −15% | percent inhibition ([7]; 1 μM): −13.5% | inhibition at 0.1 µM ([8]; 0.1 μM): -8.9% | inhibition at 1 µM ([8]; 1 μM): -6.1% | inhibition at 0.1 µM ([9]; 0.1 μM): -1.5% | inhibition at 1 µM ([9]; 1 μM): -46.5% | inhibition at 0.1 µM ([10]; 0.1 μM): 17.8% | inhibition at 1 µM ([10]; 1 μM): 24.6% | percent inhibition ([11]; 0.1 μM): 1.5% | percent inhibition ([11]; 1 μM): 23.7% | IC50 [12]: 13 nM | inhibition at 0.1 µM ([13]; 0.1 μM): -12.7% | inhibition at 1 µM ([13]; 1 μM): 18.1% | inhibition at 0.1 µM ([14]; 0.1 μM): -16.9% | inhibition at 1 µM ([14]; 1 μM): -15.5% | inhibition at 0.1 µM ([15]; 0.1 μM): -34% | inhibition at 1 µM ([15]; 1 μM): -56.6% | inhibition at 0.1 µM ([16]; 0.1 μM): 4.3% | inhibition at 1 µM ([16]; 1 μM): -0.9% | inhibition at 0.1 µM ([17]; 0.1 μM): 5.2% | inhibition at 1 µM ([17]; 1 μM): -8% | percent inhibition ([18]; 0.1 μM): −13% | percent inhibition ([18]; 1 μM): −3.2% | inhibition at 0.1 µM ([19]; 0.1 μM): 1.4% | inhibition at 1 µM ([19]; 1 μM): 4.5% | percent inhibition ([20]; 0.1 μM): 9.4% | percent inhibition ([20]; 1 μM): −3.5% | inhibition at 0.1 µM ([21]; 0.1 μM): 2.7% | inhibition at 1 µM ([21]; 1 μM): 20.1% | inhibition at 0.1 µM ([22]; 0.1 μM): 2.7% | inhibition at 1 µM ([22]; 1 μM): -5.2% | inhibition at 0.1 µM ([23]; 0.1 μM): 10.1% | inhibition at 1 µM ([23]; 1 μM): 9.6% | inhibition at 0.1 µM ([24]; 0.1 μM): -10.6% | inhibition at 1 µM ([24]; 1 μM): 31.2% | inhibition at 0.1 µM ([25]; 0.1 μM): 17.7% | inhibition at 1 µM ([25]; 1 μM): 34.7% | inhibition at 0.1 µM ([26]; 0.1 μM): 0.6% | inhibition at 1 µM ([26]; 1 μM): 0.8% | inhibition at 0.1 µM ([27]; 0.1 μM): -4.4% | inhibition at 1 µM ([27]; 1 μM): -30% | inhibition at 0.1 µM ([28]; 0.1 μM): -9.2% | inhibition at 1 µM ([28]; 1 μM): 7.2% | inhibition at 0.1 µM ([29]; 0.1 μM): 2.4% | inhibition at 1 µM ([29]; 1 μM): -5.2% | inhibition at 0.1 µM ([30]; 0.1 μM): -0.9% | inhibition at 1 µM ([30]; 1 μM): 12.6% | inhibition at 0.1 µM ([31]; 0.1 μM): 7.8% | inhibition at 1 µM ([31]; 1 μM): 2.7% | inhibition at 0.1 µM ([32]; 0.1 μM): 1.6% | inhibition at 1 µM ([32]; 1 μM): 8.4% | percent inhibition ([33]; 0.1 μM): 1% | percent inhibition ([33]; 1 μM): −2.2% | inhibition at 0.1 µM ([34]; 0.1 μM): -20% | inhibition at 1 µM ([34]; 1 μM): -40.5% | inhibition at 0.1 µM ([35]; 0.1 μM): -6.3% | inhibition at 1 µM ([35]; 1 μM): -24.2%
